Tested on: arv1D cells
Test: Polyene (nystatin) sensitivity of arv1 deletion yeast, growth on plates
Format: cell-based, Saccharomyces cerevisiae
Details: for polyene sensitivity of yeast strains deleted for the ARV1 gene (arv1Δ): concentration not given
Description: FIGS. 1A-1C arv1 mutant phenotypes. FIG. 1A, Temperature and nystatin sensitivity. 5-fold dilutions of cells were grown as indicated for three days on YEPD +/−5 μg/ml nystatin (10 mg/ml in propylene glycol). FIG. 1B, Characterization of sterol levels. Cells were labeled with [^3H]acetate and lipids extracted and analyzed by TLC. Data from three independent assays of two strains of each genotype is expressed as mean ratio over wild-type (±SEM; statistical significance by paired t-tests, *p<0.05 or **p<0.01 compared to wild-type). Hatched bars wild-type, gray bars=arv1D. FIG. 1C, Subcellular sterol accumulation. Cell membrane preparations were subjected to subcellular fractionation. Lipid composition is presented as ratio of [^3H]acetate in sterol and [^14C]oleate in phospholipids (top panels). Hatched bars=wild-type, gray bars=arv1D. Note scale differences between the upper panels. Fractions were characterized with specific antibodies against the plasma membrane ATPase (Pma1p, provided by Amy Chang), and 100 kDa subunit of integral vacuolar membrane H^+ATPase (Vph1p, Molecular Probes). Bottom panels show densitometry analysis of western blots expressed as percentage of total arbitrary units (Pma1p; closed boxes, Vph1p; open triangles). The integral ER membrane protein, dolichol phosphate mannose synthase cofractionated with Vph1p.
Mutations in sterol trafficking genes may alter membrane sterol levels. arv1D cells are sensitive to nystatin (FIG. 1a), a polyene antibiotic that disrupts membranes in part by interaction with sterols^10. Nystatin partitioning into membranes is sensitive to both sterol organization and levels^10. […] Iodine staining of sterol mass following extraction and thin layer chromatography (TLC) analysis reflected these differences (not shown).

| Structure (SMILES) | sensitivity of arv1D cells to nystatin (growth, FIG. 1a) (5-fold dilutions of cells grown three days on YEPD +/- 5 μg/ml nystatin, compared with wild-type) | polyene sensitivity of yeast strains deleted for the ARV1 gene (arv1Δ) |
| --- | --- | --- |
| C[C@@H]1[C@H](O)[C@@H](C)/C=C/C=C/CC/C=C/C=C/C=C/C=C/C(O[C@H]2O[C@H](C)[C@@H](O)[C@H](N)[C@@H]2O)CC2O[C@](O)(CC(O)C(O)CCC(O)CC(O)CC(O)CC(=O)O[C@H]1C)CC(O)C2C(=O)O (stereo partly shown) [nystatin] | sensitive | sensitive |
| CCCCC[C@@H](O)[C@H]1C(=O)O[C@H](C)[C@@H](O)/C=C/C=C/C=C/C=C/C=C(\C)[C@@H](O)C[C@H](O)C[C@H](O)C[C@H](O)C[C@H](O)C[C@H](O)C[C@@H]1O [filipin] | – | sensitive |
| C[C@@H]1[C@H](O)[C@@H](C)/C=C/C=C/C=C/C=C/C=C/C=C/C=C/[C@H](O[C@@H]2O[C@H](C)[C@@H](O)[C@H](N)[C@@H]2O)C[C@@H]2O[C@](O)(C[C@@H](O)C[C@@H](O)[C@H](O)CC[C@@H](O)C[C@@H](O)CC(=O)O[C@H]1C)C[C@H](O)[C@H]2C(=O)O [amphotericin B] | – | sensitive |

Source: patent US6566512B1, “ARV1, a protein involved in sterol uptake and sterol homeostasis in the budding yeast, S-cerevisiae, and a functional human ARV1” (The Trustees of Columbia University in the City of New York, priority 2000, dated 2003)
